How the values were obtained:
[1] = tested on: ALK2 (Alk2p, cytochrome P450 CYP52); assay: In vitro enzymatic assay: conversion of radiolabeled fatty acids by microsomes of S. cerevisiae WAT11 expressing ALK2 (TLC); conditions: yeast microsomes, NADPH; for Degree of conversion (%): gene ALK2, substrate 100 μM, ND: not detectable
Procedure: (§1) In order to confirm their hypotheses according to which these enzymes catalyze fatty acids by oxygenation reaction, the inventors performed a screening using microsomes of S. cerevisiae WAT11 yeast transformed with 6 of the genes of the CYP52 family, cloned into Yarrowia lipolytica: ALK2, ALK3, ALK4, ALK5, ALK6 and ALK11.
(§2) The incubations were carried out on the model substrate constituted by lauric acid (C12.0), in the presence of NADPH.
(§3) The reaction mixtures were deposited on TLC plates, and then developed and analyzed.
(§4) In order to study the substrate specificity of these enzymes, the inventors incubated each microsomal preparation with free fatty acids of different size and at various levels of unsaturation (for example, myristic acid—C14:0, palmitic acid—C16:0, stearic acid—C18:0, oleic acid—C18:1 and linoleic acid—C18:2).
(§5) The expression of the proteins of the 6 members of the 6YP52 family cloned was carried out using a heterologous system specifically designed for the expression of cytochrome P450 enzymes, based on the pYeDP60 vector and the Saccharomyces cerevisiae WAT11 strain. The WAT11 strain was transformed with each of the pYeDP60 constructs using the lithium acetate LiAc method. The transformants were selected by plating out on YNB plates lacking uracil. The yeasts are left in culture and the expression of cytochrome P450 was induced as described in Pompon et al., 1996. For each transformant, the microsomes were prepared by manually breaking the cells using glass beads (0.45 mm in diameter) in 50 mM of a Tris-HCl buffer (pH 7.5) containing 1 mM EDTA and 600 mM of sorbitol. The homogenate was subjected to centrifugation (10 000 g-15 min) and the resulting supernatant was subjected to ultracentrifugation (100 000 g-1 h). The microsome pellet was resuspended in 50 mM Tris-HCl (pH 7.4), mM EDTA and 30% (v/v) of glycerol with a Potter-Elvehjem homogenizer. The volume of buffer used for resuspending the microsomes was determined by the approximate weight of the wet pellet of yeast obtained after growth (1 ml of buffer per 2 g of cell pellet). The total concentrations of protein in the microsomes were estimated using the Bradford test and homogenized at 15 mg/ml using the appropriate volume of resuspension buffer. The microsome preparation was stored at −20° C. All the experiments for the microsome preparations were carried out between 0 and 4° C.
(§6) The activity of the cytochrome P450 enzymes was evaluated in vitro using various radiolabeled fatty acids. The standard test (0.1 ml) contained […] sodium phosphate (pH 7.4), […] NADPH, a radiolabeled substrate (100 μM) and 0.15 mg of microsomal protein. The reactions were carried out in a waterbath at 27° C. with continuous shaking. The reaction is initiated by adding NADPH and stopped after 20 min by adding 20 μl of acetonitrile containing 0.2% of acetic acid.
(§7) The reaction mixtures were deposited directly on TLC plates covered with silica in order to separate the incubation products from the initial substrate. The plates were developed using an ether/petroleum ether/formic acid mixture (50:50:1, v/v/v). The plates were scanned using a radioactivity detector. The chromatograms resulting from the TLC make it possible to determine the degrees of conversion for each cytochrome P450/fatty acid combination, based on the radioactivity detected by the reader. […]

[2] = tested on: ALK3 (Alk3p, cytochrome P450 CYP52); assay: In vitro enzymatic assay: conversion of radiolabeled fatty acids by microsomes of S. cerevisiae WAT11 expressing ALK3 (TLC, GC-MS); conditions: NADPH; for Products of conversion by Alk3p seen in TLC chromatograms: fresh microsomes, standardized total protein, duplicate; for Degree of conversion (%): gene ALK3, substrate 100 μM, ND: not detectable; for Reaction product of Alk3p identified by GC-MS (first product peak) / Reaction product of Alk3p identified by GC-MS (second peak, diacid): incubation with Alk3p microsomes, GC-MS of methylated/TMS derivatives
Procedure: as §1, §2, §3, §4
Preparations of fresh microsomes of yeast expressing Alk3p were carried out. The inventors standardized the total protein content and performed new incubations with lauric acid and palmitic acid and also the abovementioned three C18 fatty acids (stearic acid, oleic acid and linoleic acid). All the reactions were carried out in duplicate in the presence of NADPH for analysis by TLC and GC-MS.
as §5, §6
The reaction mixtures were deposited directly on TLC plates covered with silica in order to separate the incubation products from the initial substrate. The plates were developed using an ether/petroleum ether/formic acid mixture (50:50:1, v/v/v). The plates were scanned using a radioactivity detector.

[3] = tested on: ALK5 (Alk5p, cytochrome P450 CYP52); assay: In vitro enzymatic assay: conversion of radiolabeled fatty acids by microsomes of S. cerevisiae WAT11 expressing ALK5 (TLC); conditions: yeast microsomes, NADPH; for Degree of conversion (%): gene ALK5, substrate 100 μM, ND: not detectable
Procedure: as §1, §2, §3, §4, §5, §6
The reaction mixtures were deposited directly on TLC plates covered with silica in order to separate the incubation products from the initial substrate. The plates were developed using an ether/petroleum ether/formic acid mixture (50:50:1, v/v/v). The plates were scanned using a radioactivity detector. The chromatograms resulting from the TLC make it possible to determine the degrees of conversion for each cytochrome P450/fatty acid combination, based on the radioactivity detected by the reader. The mobility of the products on the TLC plate is a good indication of the type of oxygenation reaction that was carried out on the substrate (i.e. hydroxylation, epoxidation, diacid formation).

[4] = tested on: ALK11 (Alk11p, cytochrome P450 CYP52); assay: In vitro enzymatic assay: conversion of radiolabeled fatty acids by microsomes of S. cerevisiae WAT11 expressing ALK11 (TLC); conditions: yeast microsomes, NADPH; for Degree of conversion (%): gene ALK11, substrate 100 μM, ND: not detectable
Procedure: as §1, §2, §3, §4
as §5, with “The microsome preparation was stored at −20° C. All the experiments for the microsome preparations were carried out between 0 and 4° C.” left out
(§8) The activity of the cytochrome P450 enzymes was evaluated in vitro using various radiolabeled fatty acids. […]
as §7, with “The plates were developed using an ether/petroleum ether/formic acid mixture (50:50:1, v/v/v).” left out

[5] = tested on: ALK4 (Alk4p, cytochrome P450 CYP52); assay: In vitro enzymatic assay: conversion of radiolabeled fatty acids by microsomes of S. cerevisiae WAT11 expressing ALK4 (TLC); conditions: gene ALK4, substrate 100 μM, yeast microsomes, NADPH, ND: not detectable
Procedure: as §1, §2
The reaction mixtures were deposited on TLC plates, and then developed and analyzed. […]
The expression of the proteins of the 6 members of the 6YP52 family cloned was carried out using a heterologous system specifically designed for the expression of cytochrome P450 enzymes, based on the pYeDP60 vector and the Saccharomyces cerevisiae WAT11 strain. […] The volume of buffer used for resuspending the microsomes was determined by the approximate weight of the wet pellet of yeast obtained after growth (1 ml of buffer per 2 g of cell pellet). […]
as §8
The reaction mixtures were deposited directly on TLC plates covered with silica in order to separate the incubation products from the initial substrate. […] The plates were scanned using a radioactivity detector. […]

CCCCCCCCCCCC(=O)O [C12:0, lauric acid]
Degree of conversion (%) [1]: 7.3%
Conversion of the fatty acid by Alk2p, in words [1]: capable of metabolizing
Products of conversion by Alk3p seen in TLC chromatograms ([2]; TLC): two products
Degree of conversion (%) ([2]; yeast microsomes, TLC): 65%
Reaction product of Alk3p identified by GC-MS (first product peak) [2]: 12-hydroxylauric acid derivative
Conversion of the fatty acid by Alk3p, in words ([2]; yeast microsomes, TLC): capable of metabolizing
Degree of conversion (%) [3]: 24%
Conversion of the fatty acid by Alk5p, in words [3]: capable of metabolizing
Degree of conversion (%) [4]: Traces
Conversion of the fatty acid by Alk11p, in words [4]: capable of metabolizing

CCCCCCCCCCCCCC(=O)O [C14:0, myristic acid]
Degree of conversion (%) [1]: 1.1%
Degree of conversion (%) ([2]; yeast microsomes, TLC): 68%
Degree of conversion (%) [3]: 27%

CCCCCCCCCCCCCCCC(=O)O [C16:0, palmitic acid]
Degree of conversion (%) [1]: 0.5%
Degree of conversion (%) [3]: 12%

CCCCCCCCCCCCCCCCCC(=O)O [C18:0, stearic acid]
Conversion of the fatty acid by Alk2p, in words [1]: No significant conversion
Products of conversion by Alk3p seen in TLC chromatograms ([2]; TLC): only an w-oxidation product
Degree of conversion (%) ([2]; yeast microsomes, TLC): 3%
Reaction product of Alk3p identified by GC-MS (first product peak) [2]: 18-hydroxystearic acid derivative
Degree of conversion (%) [3]: 2%

CCCCCCCC/C=C\CCCCCCCC(=O)O [C18:1, oleic acid]
Products of conversion by Alk3p seen in TLC chromatograms ([2]; TLC): two products
Degree of conversion (%) ([2]; yeast microsomes, TLC): 27%
Reaction product of Alk3p identified by GC-MS (first product peak) [2]: 18-hydroxyoleic acid derivative
Reaction product of Alk3p identified by GC-MS (second peak, diacid) [2]: 1,18-octadeca-9-enedioic acid
Degree of conversion (%) [3]: 13%
Degree of conversion (%) [4]: 2%

CCCCC/C=C\C/C=C\CCCCCCCC(=O)O [C18:2, linoleic acid]
Products of conversion by Alk3p seen in TLC chromatograms ([2]; TLC): two products
Degree of conversion (%) ([2]; yeast microsomes, TLC): 35%
Reaction product of Alk3p identified by GC-MS (first product peak) [2]: 18-hydroxylinoleic acid derivative
Reaction product of Alk3p identified by GC-MS (second peak, diacid) [2]: 1,18-octadeca-9,12-dienedioic derivative
Degree of conversion (%) [5]: 3%
Degree of conversion (%) [3]: 11%
Degree of conversion (%) [4]: 4%
